Measurements reported in ChEMBL document CHEMBL3879911, “Heteroaryl compounds useful as inhibitors of E1 activating enzymes” (2008).

Molecular target: T1, NEDD8 activating enzyme (Homo sapiens, UniProt Q8TBC4)
T1 sequence (Q8TBC4 whole entry): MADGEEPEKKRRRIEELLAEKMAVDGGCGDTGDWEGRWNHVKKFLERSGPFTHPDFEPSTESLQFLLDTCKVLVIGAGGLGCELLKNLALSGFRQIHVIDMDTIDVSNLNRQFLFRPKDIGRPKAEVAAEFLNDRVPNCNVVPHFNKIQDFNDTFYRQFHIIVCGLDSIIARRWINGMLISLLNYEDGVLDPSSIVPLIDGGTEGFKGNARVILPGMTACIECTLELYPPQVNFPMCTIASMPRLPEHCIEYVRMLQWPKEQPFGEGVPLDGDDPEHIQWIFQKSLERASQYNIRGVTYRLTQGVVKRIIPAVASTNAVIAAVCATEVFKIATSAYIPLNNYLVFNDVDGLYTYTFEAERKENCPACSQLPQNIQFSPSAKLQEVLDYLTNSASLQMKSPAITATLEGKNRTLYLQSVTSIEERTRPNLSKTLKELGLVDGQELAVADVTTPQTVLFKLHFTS
T1 sequence (Q13564 whole entry): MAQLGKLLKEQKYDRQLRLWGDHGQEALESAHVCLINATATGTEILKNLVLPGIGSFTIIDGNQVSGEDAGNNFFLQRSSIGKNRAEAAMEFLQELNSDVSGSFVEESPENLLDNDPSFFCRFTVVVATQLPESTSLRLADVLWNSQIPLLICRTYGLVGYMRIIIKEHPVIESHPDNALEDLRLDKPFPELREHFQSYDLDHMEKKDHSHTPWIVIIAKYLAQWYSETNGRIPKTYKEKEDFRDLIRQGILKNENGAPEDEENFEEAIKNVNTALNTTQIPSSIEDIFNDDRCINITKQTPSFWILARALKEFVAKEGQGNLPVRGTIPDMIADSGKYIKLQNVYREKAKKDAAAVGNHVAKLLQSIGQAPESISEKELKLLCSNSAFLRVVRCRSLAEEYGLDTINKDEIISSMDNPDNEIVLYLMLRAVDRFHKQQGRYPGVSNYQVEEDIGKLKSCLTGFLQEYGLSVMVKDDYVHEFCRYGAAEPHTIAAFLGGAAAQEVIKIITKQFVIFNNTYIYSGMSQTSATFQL
Experiment: Inhibition of recombinant human NAEalpha/N-terminal His-tagged NAEbeta expressed in baculovirus infected insect Sf9 cells using N-terminal FLAG tagged Nedd8 as substrate incubated for 105 mins in presence of N-terminal GST-tagged Ubc12 by FRET assay

Row | IC50 [nM] | SMILES
1 | ≤ 500 | CC1(C)Cc2cccc(-c3nc4c(N[C@@H]5C[C@@H](COS(N)(=O)=O)[C@@H](O)C5)ncnc4[nH]3)c2O1
2 | ≤ 500 | NS(=O)(=O)OC[C@@H]1C[C@@H](Nc2ncnc3[nH]c(Cc4ccccc4)nc23)C[C@@H]1O
3 | ≤ 500 | NS(=O)(=O)OC[C@@H]1C[C@@H](Nc2ncnc3oc(-c4ccccc4)nc23)C[C@@H]1O
4 | 500 to 10000 | CO[C@H]1c2ccccc2C[C@H]1Oc1cc(O[C@@H]2C[C@@H](COS(N)(=O)=O)[C@@H](O)C2)ncn1
5 | ≤ 500 | Cc1cccc(S(=O)(=O)c2nc3c(O[C@@H]4C[C@@H](COS(N)(=O)=O)[C@@H](O)C4)ncnc3[nH]2)c1
6 | 500 to 10000 | CO[C@@H]1c2ccccc2C[C@@H]1Oc1cc(O[C@@H]2C[C@@H](COS(N)(=O)=O)[C@@H](O)C2)ncn1
7 | 500 to 10000 | CO[C@H]1Cc2ccccc2[C@H]1Oc1cc(O[C@@H]2C[C@@H](COS(N)(=O)=O)[C@@H](O)C2)ncn1
8 | > 10000 | NS(=O)(=O)OC[C@@H]1C[C@@H](Oc2ccncn2)C[C@@H]1O
9 | ≤ 500 | CN(c1cc(N[C@H]2CCc3ccccc32)ncn1)[C@@H]1C[C@H](COS(N)(=O)=O)[C@@H](O)[C@H]1O
10 | ≤ 500 | NS(=O)(=O)OC[C@@H]1C[C@@H](Nc2ncnc3nc(-c4cccc5cccnc45)[nH]c23)C[C@@H]1O
11 | ≤ 500 | NS(=O)(=O)OC[C@@H]1C[C@@H](Nc2ncnc3nc(-c4ccc(OCc5ccccc5)cc4)[nH]c23)C[C@@H]1O
12 | ≤ 500 | NS(=O)(=O)OC[C@@H]1C[C@@H](Nc2ncnc3[nH]c(-c4cccc(-c5ccccc5)c4)nc23)C[C@@H]1O
13 | ≤ 500 | CN(C)c1ccc(-c2nc3ncnc(O[C@@H]4C[C@@H](COS(N)(=O)=O)[C@@H](O)C4)c3[nH]2)c2ccccc12
14 | ≤ 500 | CO[C@H]1Cc2ccccc2[C@H]1Nc1ncnc(O[C@@H]2C[C@@H](COS(N)(=O)=O)[C@@H](O)C2)c1F
15 | 500 to 10000 | OC[C@@H]1C[C@@H](Nc2ncnc3[nH]c(-c4cccc5c4CCCC5)nc23)C[C@@H]1O
16 | ≤ 500 | NS(=O)(=O)OC[C@@H]1C[C@@H](Oc2ccnc3[nH]c(-c4cccc5ccccc45)nc23)C[C@@H]1O

Row | IC50 [nM] | SMILES
17 | ≤ 500 | CO[C@H]1Cc2ccccc2[C@H]1Nc1cc(O[C@@H]2C[C@@H](CNS(N)(=O)=O)[C@@H](O)C2)ncn1
18 | 500 to 10000 | NS(=O)(=O)OC[C@H]1C[C@@H](Nc2cc(N[C@H]3CCC[C@@H]3OCc3ccccc3)ncn2)[C@H](O)[C@@H]1O
19 | 500 to 10000 | CO[C@@H]1Cc2ccccc2[C@@H]1Oc1cc(O[C@@H]2C[C@@H](COS(N)(=O)=O)[C@@H](O)C2)ncn1
20 | ≤ 500 | COc1cccc(-c2nc3c(N[C@@H]4C[C@@H](COS(N)(=O)=O)[C@@H](O)C4)ncnc3[nH]2)c1
21 | ≤ 500 | NS(=O)(=O)OC[C@@H]1C[C@@H](Oc2ncnc3[nH]c(-c4cccc5ccccc45)nc23)C[C@@H]1O
22 | 500 to 10000 | NS(=O)(=O)OC[C@H]1C[C@@H](Nc2cc(CCc3ccccc3)ncn2)[C@H](O)[C@@H]1O
23 | ≤ 500 | COc1cccc(OC)c1-c1nc2c(N[C@@H]3C[C@@H](COS(N)(=O)=O)[C@@H](O)C3)ncnc2[nH]1
24 | 500 to 10000 | NS(=O)(=O)OC[C@@H]1C[C@@H](Oc2ccnc(N[C@H]3CCc4ccccc43)c2)C[C@@H]1O
25 | > 10000 | NS(=O)(=O)OC[C@@H]1C[C@@H](O)[C@H](Nc2cc(N[C@H]3CCc4ccccc43)ncn2)C1
26 | > 10000 | NS(=O)(=O)OC[C@H]1C[C@@H](Nc2cc(N[C@@H]3CCC[C@H]3OCc3ccccc3)ncn2)[C@H](O)[C@@H]1O
27 | 500 to 10000 | NS(=O)(=O)OC[C@@H]1C[C@@H](Oc2ncnc3c2ncn3Cc2ccccc2)C[C@@H]1O
28 | ≤ 500 | NS(=O)(=O)OC[C@H]1C[C@@H](Nc2cc(C#Cc3ccccc3)ncn2)[C@H](O)[C@@H]1O
29 | ≤ 500 | Cc1ccccc1-c1nc2c(N[C@@H]3C[C@@H](COS(N)(=O)=O)[C@@H](O)C3)ncnc2[nH]1
30 | 500 to 10000 | NS(=O)(=O)OC[C@@H]1C[C@@H](Nc2cc(CCc3ccccc3)ncn2)C[C@@H]1O
31 | > 10000 | NS(=O)(=O)OC[C@@H]1C[C@@H](Oc2cc(OCc3ccc(Cl)cc3)ncn2)C[C@@H]1O
